One experiment concerns the target T1, ARH3 (Homo sapiens, UniProt Q9NX46).
T1 construct: we determined the structure of full-length ARH3 in complex with ADPR and Ca^2+; made in house
T1 sequence (Q9NX46 1-363): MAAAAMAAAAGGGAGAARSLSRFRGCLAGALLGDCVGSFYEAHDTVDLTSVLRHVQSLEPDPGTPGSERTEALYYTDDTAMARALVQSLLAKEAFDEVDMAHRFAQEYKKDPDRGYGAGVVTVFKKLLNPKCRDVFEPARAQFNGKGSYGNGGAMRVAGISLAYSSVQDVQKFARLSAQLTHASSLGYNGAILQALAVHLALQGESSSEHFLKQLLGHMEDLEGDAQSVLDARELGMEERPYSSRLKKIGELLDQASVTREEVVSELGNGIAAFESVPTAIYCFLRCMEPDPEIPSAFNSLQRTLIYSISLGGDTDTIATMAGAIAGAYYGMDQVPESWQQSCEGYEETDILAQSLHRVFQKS
The experiment is described as follows: Gel-based PAR turnover assay (PARylated PARP1C substrate). Type of experiment: biochemical. The note with it: for effect on PAR hydrolysis by ARH3: WT ARH3 2 μM, 5 mM EDTA or Ca^2+, PARylated PARP1C, 1 h, 37 °C. The method, then: A gel-based PAR-turnover assay was performed to evaluate the enzymatic activity of ARH3^WT, ARH3^D77A, ARH3^D78A, ARH3^D314A, and ARH3^D316A, as described previously ([14], [40]). Briefly, 2 μM of the catalytic domain of human PARP1 (PARP1C; residues 375–1014) was auto-PARylated at 37 °C for 30 min in the presence of 2 μM DBD of PARP1 (residues 1–374), 2 μM double-stranded DNA, and 400 μM β-NAD^+ (Sigma) in a buffer containing 100 mM NaCl, 50 mM Tris (pH 7.5), 10 mM MgCl2, and 2 mM DTT. ARH3 proteins (in the presence of 5 mM EDTA, Mg^2+, or Ca^2+) with final concentrations of 2 μM were mixed with the PARylated PARP1C substrate, followed by incubation for 1 h in 37 °C. Reactions then were stopped by adding 4× SDS-loading dye (Bio-Rad) and visualized by Coomassie blue staining of SDS-polyacrylamide gels.

Another experiment addresses T2, ARH3^WT (Homo sapiens, UniProt Q9NX46).
T2 construct: we determined the structure of full-length ARH3 in complex with ADPR and Ca^2+; made in house
T2 sequence (Q9NX46 1-363): T1 sequence (Q9NX46 1-363)
The experiment is described as follows: Isothermal titration calorimetry (ITC) of ADPR binding to ARH3^WT. The settings on record: for Kd / N (sites) / ΔG / ΔH / −TΔS: 25 °C, pH 7.5. The method, then:
(§1) ITC experiments were performed at 25 °C in a buffer containing 150 mM NaCl, 100 mM Tris at pH 7.5, and 5 mM divalent metals (MgCl2, MnCl2, and CaCl2) or EDTA (Sigma–Aldrich). The WT or mutants of ARH3 were placed in a cell at 50 μM concentration, and ADPR was placed in the injection syringe at 660 μM concentration. Overall, 26 injections (10 μl per injection except for the first sample [5 μl]) were administered with an interval of 5 min between peaks to allow the baseline to be stabilized. […] The obtained plots were fitted with a single-site binding model in the Origin software package (MicroCal, Inc).

In another experiment the target is T3, ARH3^D77A (Homo sapiens, UniProt Q9NX46, D77A).
T3 construct: His6 with PreScission protease cleavage site (N); made in house
T3 sequence (Q9NX46 1-363 D77A): T1 sequence (Q9NX46 1-363) with D77A
The experiment is described as follows: Isothermal titration calorimetry (ITC) of ADPR binding to ARH3^D77A. Here is the method: as §1
For orientation: Isothermal titration calorimetry measures the heat released or taken up as one component is titrated into another.

For a further experiment, the target named is T4, ARH3^D314A (Homo sapiens, UniProt Q9NX46, D314A).
T4 construct: His6 with PreScission protease cleavage site (N); made in house
T4 sequence (Q9NX46 1-363 D314A): T1 sequence (Q9NX46 1-363) with D314A
Kind of experiment: Isothermal titration calorimetry (ITC) of ADPR binding to ARH3^D314A. Here is the method:
as §1

[1] abbreviates: ARH3^D77A, 5 mM Mg^2+, 25 °C, pH 7.5.
Where [2] appears, read: ARH3^D314A, 5 mM Mg^2+, 25 °C, pH 7.5.

Each structure is given as a SMILES string. Changes are numbered by the printed parent chain. “Also recorded” adds a separate entry of the source.

As usually defined, the Kd is the free concentration of one partner at which half of the binding sites on the other are occupied at equilibrium, for simple one-to-one binding. Read a low Kd as a tighter complex.

Regarding `O=C(O)CN(CCN(CC(=O)O)CC(=O)O)CC(=O)O` [EDTA], the “effect on PAR hydrolysis by ARH3” value at ARH3 is “inhibit; also recorded: effectively suppresses PAR hydrolysis”.
In the case of `Nc1ncnc2c1ncn2[C@@H]1O[C@H](COP(=O)(O)OP(=O)(O)OC[C@H]2OC(O)[C@H](O)[C@@H]2O)[C@@H](O)[C@H]1O` (stereo partly shown) [ADPR, ADP-ribose], the Kd turned out to be 7.81 ± 0.51 µM at ARH3^WT (5 mM Ca^2+); 80.7 ± 5.25 µM on ARH3^WT (5 mM EDTA (metal-free)); 1.42 ± 0.07 µM on ARH3^WT (5 mM Mg^2+); 0.83 ± 0.05 µM at ARH3^WT (5 mM Mn^2+); 0.06 ± 0.01 µM on ARH3^D77A (setting [1]); 62.9 ± 2.9 µM on ARH3^D314A (setting [2]). The “N (sites)” value on ARH3^WT (5 mM Ca^2+) is 1.18 ± 0.01 sites; at ARH3^WT (5 mM EDTA) it was 0.96 ± 0.08 sites; at ARH3^WT (5 mM Mg^2+) it was 1.12 ± 0.01 sites; on ARH3^WT (5 mM Mn^2+), 1.09 ± 0.01 sites; at ARH3^D77A (setting [1]), 1.18 ± 0.01 sites; on ARH3^D314A (setting [2]), 0.96 ± 0.04 sites. In addition, the ΔG on ARH3^WT (5 mM Ca^2+) is -6.96 kcal/M; at ARH3^WT (5 mM EDTA), -5.59 kcal/M; at ARH3^WT (5 mM Mg^2+) it was -7.98 kcal/M; on ARH3^WT (5 mM Mn^2+), -8.29 kcal/M; at ARH3^D77A (setting [1]), -9.87 kcal/M; on ARH3^D314A (setting [2]) it was -5.74 kcal/M. The ΔH was -5.71 kcal/M on ARH3^WT (5 mM Ca^2+); -5.164 kcal/M on ARH3^WT (5 mM EDTA); -9.29 kcal/M at ARH3^WT (5 mM Mg^2+); -10.57 kcal/M on ARH3^WT (5 mM Mn^2+); -8.50 kcal/M at ARH3^D77A (setting [1]); -10.36 kcal/M at ARH3^D314A (setting [2]). In addition, the “−TΔS” value at ARH3^WT (5 mM Ca^2+) is -1.25 kcal/M; at ARH3^WT (5 mM EDTA), -0.42 kcal/M; on ARH3^WT (5 mM Mg^2+) it was 1.31 kcal/M; on ARH3^WT (5 mM Mn^2+), 2.28 kcal/M; at ARH3^D77A (setting [1]), -1.37 kcal/M; at ARH3^D314A (setting [2]), 4.61 kcal/M. In addition, the “reduction in ADPR-binding affinity with Ca^2+ compared with Mg^2+” value on ARH3^WT (KD^Ca versus KD^Mg) is on record as “about a sixfold reduction”. Further, the “increase in binding affinity with Mg^2+ versus metal-free enzyme (EDTA)” value at ARH3^WT (KD^Mg versus KD^EDTA) is listed as “approximately 60 fold”. Also, on ARH3^D77A (ARH3^D77A versus ARH3^WT, Mg^2+), the “increase in ADPR-binding affinity compared with ARH3^WT” value was found to be 23 fold. The “decrease in ADPR-binding affinity compared with ARH3^WT” value on ARH3^D314A (ARH3^D314A versus ARH3^WT, Mg^2+) stood at 44 fold.
With `[Ca+2].[Cl-].[Cl-]` [Ca^2+, CaCl2], the “effect on PAR hydrolysis by ARH3” value at ARH3 is recorded as “inhibit; also recorded: effectively suppresses PAR hydrolysis”. Also, the “Ca2+-dependent inhibition of ARH3 PAR hydrolysis activity” value at ARH3 (in the presence of Mg2+ and increasing concentrations of Ca2+, 5 mM Ca2+) is on record as “sufficient to effectively inhibit ARH3 activity”.

Source of the values: paper PMC8141533, “Structural and biochemical analysis of human ADP-ribosyl-acceptor hydrolase 3 reveals the basis of metal selectivity and different roles for the two magnesium ions” (The Journal of Biological Chemistry, 2021).
